Values of other authors as cited in patent US6399819B1, “Process for purifying creatine” (BASF Aktiengesellschaft, priority 1999, dated 2002).

Conditions: recrystallization from water

For CN(CC(=O)O)C(=N)N [creatine], the “temperature above which decomposition of creatine to creatinine and N-methylhydantoin increases to a level no longer acceptable” value is listed as “about 80 °C”.
